Measurements published in patent US12421216B2, “Voruciclib polymorphs and methods of making and using thereof” (MEI PHARMA, INC., priority 2019, dated 2025).
Entries after “also recorded” stand apart in the source; their conditions may differ. Blank lines part the entries; values can stand above or below the compound they belong to.

Legend:
[1] = Physical stability upon exposure to accelerated aging conditions (AAC, 40° C./75% RH), re-analysis by HT-XRPD; type: physicochemical; conditions: for Physical stability upon exposure to AAC / Stable during AAC: 40° C./75% RH, 2 days; for Physical stability upon exposure to AAC: HT-XRPD before and after; for Stable during AAC: salt screen solids; for Liquid phase AAC (XRPD form after accelerated aging): solids from evaporated mother liquors of the salt screen; for Liquid phase AAC (XRPD form after accelerated aging) / Solid phase AAC (XRPD form after accelerated aging): 40° C./75% RH for 2 days, HT-XRPD; for Solid phase AAC (XRPD form after accelerated aging): precipitated solids of the salt screen, dried under vacuum at 50° C.
[2] = Solubility of salts in water and in 0.2 M phosphate buffer pH 6 at 37° C. after 4 hours (HPLC-DAD); type: physicochemical; conditions: for pH (4 h): pH at end of equilibration
Procedure: Two sets of solubility experiments were performed. […] In the second set of solubility experiments about 5 mg of the salt was weighed in a standard 1.8 mL HPLC vial. Subsequently, aliquots of 200 μL of aqueous medium were added up to a maximum of 1 mL, while making observations regarding the dissolution behavior of the salts. The vials were left to equilibrate at 37° C. with continuous stirring (see Table 25 for details). After 4 hours the solids were separated from the liquid by centrifugation and the liquid phase was further filtrated through a […] PTFE filter to remove any particulate matter. The concentration of solute was determined by HPLC-DAD analysis. A calibration curve was made from two independent stock solutions of voruciclib prepared in acetonitrile/water. The pH was recorded at the end of the equilibration time.

[3] = 0.2 M phosphate buffer pH 6, 37° C., 4 hours
[4] = 0.2M phosphate buffer pH 6, 37° C., 4 hours, about 1 mg salt in 1 mL
[5] = 0.2M phosphate buffer pH 6, 37° C., 4 hours, about 5 mg salt in 1 mL
[6] = 0.2M phosphate buffer pH 6, 37° C., about 1 mg salt in 1 mL
[7] = 0.2M phosphate buffer pH 6, 37° C., about 5 mg salt in 1 mL
[8] = water, 37° C., 4 hours, about 1 mg salt in 1 mL
[9] = water, 37° C., 4 hours, about 5 mg salt, up to 1 mL
[10] = water, 37° C., about 1 mg salt in 1 mL
[11] = water, 37° C., about 5 mg salt, up to 1 mL

Structure (SMILES): CN1CC[C@@H](c2c(O)cc(O)c3c(=O)cc(-c4ccc(C(F)(F)F)cc4Cl)oc23)[C@@H]1CO.O=S(=O)(O)c1ccccc1 [Bes1]
Physical stability upon exposure to AAC [1]: physically unstable during exposure to AAC and became less crystalline | Stable during AAC [1]: No => Am or

Structure (SMILES): CN1CCC(c2c(O)cc(O)c3c(=O)cc(-c4ccc(C(F)(F)F)cc4Cl)oc23)C1CO.CN1CCC(c2c(O)cc(O)c3c(=O)cc(-c4ccc(C(F)(F)F)cc4Cl)oc23)C1CO.O=C(OC(C(=O)O)C(OC(=O)c1ccccc1)C(=O)O)c1ccccc1 (centres unmarked) [DiTr1]
Physical stability upon exposure to AAC [1]: physically stable under AAC; also recorded: physically stable upon exposure to AAC for two days | Solid phase AAC (XRPD form after accelerated aging) [1]: DiTr1 | Stable during AAC [1]: Yes | Solubility in phosphate buffer [2, 3]: 30 to 40 µg/mL | solubility [2, 4]: 30 µg/mL | solubility [2, 5]: 40 µg/mL | Form (4 h) of residual solid [2, 6]: DiTr1 | pH (4 h) [2, 6]: 6.0 | Form (4 h) of residual solid [2, 7]: DiTr1 | pH (4 h) [2, 7]: 6.3 | Dissolution behaviour in aqueous media (gelling, wettability) ([2]; salt screen, water and/or 0.2 M phosphate buffer pH 6): poor wettability | Solubility in water ([2]; water, 37° C., 4 hours): 30 to 40 µg/mL | solubility [2, 8]: 40 µg/mL | solubility [2, 9]: 30 µg/mL | Solids recovered after solubility determination in water ([2]; water, 37° C., 4 hours, XRPD): DiTr1 was recovered | pH (4 h) [2, 10]: 4.0 | Form (4 h) of residual solid [2, 11]: DiTr1 | pH (4 h) [2, 11]: 3.5

Structure (SMILES): Br.CN1CCC(c2c(O)cc(O)c3c(=O)cc(-c4ccc(C(F)(F)F)cc4Cl)oc23)C1CO (centres unmarked) [HBr1]
Physical stability upon exposure to AAC [1]: physically unstable during exposure to accelerated aging conditions and converted to HBr2 | Stable during AAC [1]: No => HBr2 | Liquid phase AAC (XRPD form after accelerated aging) [1]: HBr2

Structure (SMILES): CN1CCC(c2c(O)cc(O)c3c(=O)cc(-c4ccc(C(F)(F)F)cc4Cl)oc23)C1CO.CN1CCC(c2c(O)cc(O)c3c(=O)cc(-c4ccc(C(F)(F)F)cc4Cl)oc23)C1CO.O=S(=O)(O)c1cccc2c(S(=O)(=O)O)cccc12 (centres unmarked) [Hemi-napadisylate]
Solubility pH 6 [2, 3]: 0.02 mg/mL | Solubility water ([2]; water, 37° C., 4 hours): 20 µg/mL

Structure (SMILES): CN1CC[C@@H](c2c(O)cc(O)c3c(=O)cc(-c4ccc(C(F)(F)F)cc4Cl)oc23)[C@@H]1CO.CN1CC[C@@H](c2c(O)cc(O)c3c(=O)cc(-c4ccc(C(F)(F)F)cc4Cl)oc23)[C@@H]1CO.O=S(=O)(O)c1cccc2c(S(=O)(=O)O)cccc12 [Nds1a]
Physical stability upon exposure to AAC [1]: stable during exposure to AAC for 2 days; also recorded: physically stable upon exposure to AAC for two days | Solid phase AAC (XRPD form after accelerated aging) [1]: Nds1a | Stable during AAC [1]: Yes | Solubility in phosphate buffer [2, 3]: 20 µg/mL | solubility [2, 4]: 20 µg/mL | solubility [2, 5]: 20 µg/mL | Solids recovered / salt dissociation after solubility determination in buffer ([2]; 0.2 M phosphate buffer pH 6, 37° C., 4 hours, XRPD): the residual solids were identical to Nds1a | Form (4 h) of residual solid [2, 6]: Free | pH (4 h) [2, 6]: 6.0 | Form (4 h) of residual solid [2, 7]: Nds1a | pH (4 h) [2, 7]: 5.9 | Solubility in water ([2]; water, 37° C., 4 hours): 20 µg/mL | solubility [2, 8]: 30 µg/mL | solubility [2, 9]: 20 µg/mL | Solids recovered after solubility determination in water ([2]; water, 37° C., 4 hours, XRPD): the residual solids were identical to Nds1a | pH (4 h) [2, 10]: 4.3 | Form (4 h) of residual solid [2, 11]: Nds1a | pH (4 h) [2, 11]: 3.4

Structure (SMILES): CN1CC[C@@H](c2c(O)cc(O)c3c(=O)cc(-c4ccc(C(F)(F)F)cc4Cl)oc23)[C@@H]1CO.O=S(=O)(O)O [Sul1]
Solid phase AAC (XRPD form after accelerated aging) [1]: Sul1 | Stable during AAC [1]: Yes | Liquid phase AAC (XRPD form after accelerated aging) [1]: Sul1

Structure (SMILES): CN1CCC(c2c(O)cc(O)c3c(=O)cc(-c4ccc(C(F)(F)F)cc4Cl)oc23)C1CO.CN1CCC(c2c(O)cc(O)c3c(=O)cc(-c4ccc(C(F)(F)F)cc4Cl)oc23)C1CO.O=S(=O)(O)O (centres unmarked) [Sul2]
Solid phase AAC (XRPD form after accelerated aging) [1]: Sul2 | Stable during AAC [1]: Yes

Structure (SMILES): CN1CCC(c2c(O)cc(O)c3c(=O)cc(-c4ccc(C(F)(F)F)cc4Cl)oc23)C1CO.O=S(=O)(O)O (centres unmarked) [Sul4]
Stable during AAC [1]: Yes

Structure (SMILES): CN1CC[C@@H](c2c(O)cc(O)c3c(=O)cc(-c4ccc(C(F)(F)F)cc4Cl)oc23)[C@@H]1CO.O=C(O)c1ccc2ccccc2c1O [Xin1]
Physical stability upon exposure to AAC [1]: physically stable during exposure to AAC | Stable during AAC [1]: Yes | Liquid phase AAC (XRPD form after accelerated aging) [1]: Xin1

Second part, led by results:

Stable during AAC [1]: No => Ben3 | Liquid phase AAC (XRPD form after accelerated aging) [1]: Ben3
Structure (SMILES): CN1CCC(c2c(O)cc(O)c3c(=O)cc(-c4ccc(C(F)(F)F)cc4Cl)oc23)C1CO.O=C(O)c1ccccc1 (centres unmarked) [Ben1]
Physical stability upon exposure to AAC [1]: physically unstable during exposure to AAC for two days and converted to Ben3

Solid phase AAC (XRPD form after accelerated aging) [1]: Fum1 | Stable during AAC [1]: Yes
Structure (SMILES): CN1CCC(c2c(O)cc(O)c3c(=O)cc(-c4ccc(C(F)(F)F)cc4Cl)oc23)C1CO.O=C(O)C=CC(=O)O (centres unmarked) [Fum1]

Solid phase AAC (XRPD form after accelerated aging) [1]: Glm0
Structure (SMILES): N[C@@H](CCC(=O)O)C(=O)O [Glm0]

Stable during AAC [1]: Yes
Structure (SMILES): CN1CCC(c2c(O)cc(O)c3c(=O)cc(-c4ccc(C(F)(F)F)cc4Cl)oc23)C1CO.O=C(O)CC(O)C(=O)O (centres unmarked) [Mal1]
